The assay concerns the target NLRP3 inflammasome (Homo sapiens (Human), UniProt Q96P20). Kind of assay: Evaluation of NLRP3 inflammasome inhibitory activity (inhibition of IL-1β production in THP1-Null cells, LPS/Nigericin). The following applies: for inhibition at 3 µM: read-out: % inhibition at 3 μM.
Where [1] appears, read: inhibition of IL-1β production in THP1-Null cells.
The mark [2] stands for this setting: IL-1β production in THP1-Null cells, PMA/LPS primed, Nigericin 7.5 μmol/L.

Where two headings read alike, the source gives them in different places.

Sequence of NLRP3 inflammasome (Q96P20 whole entry): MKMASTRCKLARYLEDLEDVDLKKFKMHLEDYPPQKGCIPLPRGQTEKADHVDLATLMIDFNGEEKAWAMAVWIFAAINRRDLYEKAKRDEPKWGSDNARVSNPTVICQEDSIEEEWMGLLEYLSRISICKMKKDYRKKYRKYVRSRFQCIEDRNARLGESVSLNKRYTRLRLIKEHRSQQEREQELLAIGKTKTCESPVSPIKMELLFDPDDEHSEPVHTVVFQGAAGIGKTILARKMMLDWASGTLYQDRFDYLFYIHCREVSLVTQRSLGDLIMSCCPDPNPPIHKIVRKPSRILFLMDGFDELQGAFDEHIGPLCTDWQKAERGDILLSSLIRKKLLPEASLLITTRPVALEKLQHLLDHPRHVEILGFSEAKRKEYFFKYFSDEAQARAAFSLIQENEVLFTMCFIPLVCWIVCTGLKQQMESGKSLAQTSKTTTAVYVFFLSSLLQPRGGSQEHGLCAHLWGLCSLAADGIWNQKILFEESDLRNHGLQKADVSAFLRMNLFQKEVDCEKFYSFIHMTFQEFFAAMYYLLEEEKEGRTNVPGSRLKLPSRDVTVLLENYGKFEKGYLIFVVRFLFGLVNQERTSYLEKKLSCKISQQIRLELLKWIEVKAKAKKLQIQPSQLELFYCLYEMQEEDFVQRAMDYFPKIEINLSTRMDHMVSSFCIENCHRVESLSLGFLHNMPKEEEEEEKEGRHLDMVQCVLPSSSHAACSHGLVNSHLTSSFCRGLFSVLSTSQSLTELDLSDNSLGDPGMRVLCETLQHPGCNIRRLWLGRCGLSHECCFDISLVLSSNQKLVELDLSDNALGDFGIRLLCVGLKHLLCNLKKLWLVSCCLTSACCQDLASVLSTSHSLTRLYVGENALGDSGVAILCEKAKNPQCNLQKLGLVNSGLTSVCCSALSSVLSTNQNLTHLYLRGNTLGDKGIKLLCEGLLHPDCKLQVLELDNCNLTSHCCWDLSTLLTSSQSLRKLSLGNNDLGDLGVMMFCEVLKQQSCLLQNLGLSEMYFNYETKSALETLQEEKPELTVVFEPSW

In the case of `Cc1ccc(C(C)C)cc1Nc1nc(C(=O)NS(=O)(=O)N2CCCOCC2)cs1` [Example 2-056], the IC50 – broadly, the point on the concentration scale where inhibition reaches its midpoint – under setting [1] is below 0.03 µM. Same read-out and setting: then `Cc1ccc(C(F)(F)F)cc1Nc1nc(C(=O)NS(=O)(=O)NC(C)C)co1` [Example 2-046], with 0.32 µM. The same measure, in the same setting: then `Cc1ccc(C(F)(F)F)cc1Nc1nc(C(=O)NS(=O)(=O)N2CCNC(=O)CC2)co1` [Example 2-050], with 0.6 µM. The molecule `Cc1ccc2c(c1Nc1nc(C(=O)NS(=O)(=O)N(C)C)co1)CCC2` [Example 69] displayed an IC50 under setting [2] of 0.15 µM. As to `O=C1CCN(S(=O)(=O)NC(=O)c2coc(Nc3c4c(c(Cl)c5c3CCC5)CCC4)n2)C1` [Example 65], the IC50 under setting [2] worked out at 0.063 µM. In turn, `Cc1ccc(C(F)(F)F)cc1Nc1nc(C(=O)NS(=O)(=O)N2CCOCC(C#N)C2)co1` (racemic) [Example 2-127] came in with a concentration for half-maximal inhibition (IC50) of 0.13 µM. Consider `C[C@H]1CCCN1S(=O)(=O)NC(=O)c1coc(Nc2c3c(c(Cl)c4c2CCC4)CCC3)n1` [Example 44], for which, under setting [2], inhibition was half-maximal at 0.23 µM (IC50). `Cc1ccc(C(C)(F)F)cc1Nc1nc(C(=O)NS(=O)(=O)N(C)C)co1` [Example 2-013] returned an IC50 under setting [1] of 0.064 µM. Molecule `CCOC1COCCN(S(=O)(=O)NC(=O)c2coc(Nc3cc(C(F)(F)F)ccc3C)n2)C1` (racemic) [Example 2-318] returned a half-inhibitory concentration (IC50) of 0.077 µM. Molecule `CC(C)c1ccc2c(c1Nc1nc(C(=O)NS(=O)(=O)N3CCCOCC3)co1)CCC2` [Example 2-119] yielded an IC50 under setting [1] of 0.096 µM.

In turn, `CC(C)c1nn(C(C)C)cc1Nc1nc(C(=O)NS(=O)(=O)N2CCCN(S(=O)(=O)CC(C)(C)C)CC2)co1` [Example 2-170] returned an IC50 under setting [1] of 0.6 µM. The molecule `O=C(NS(=O)(=O)N1CC2CC1CO2)c1coc(Nc2c3c(c(Cl)c4c2CCC4)CCC3)n1` (racemic) [Example 56] yielded an IC50 of 0.046 µM. Same read-out and setting: the figure for `Cc1ccc(C(F)(F)F)cc1Nc1nc(C(=O)NS(=O)(=O)N2CCOCC2CO)co1` (racemic) [Example 2-045] is 0.18 µM. Consider `Cc1cnc(C(F)(F)F)cc1Nc1nc(C(=O)NS(=O)(=O)N2CCCOCC2)co1` [Example 2-075], for which, under setting [1], 4.5 µM corresponded to half-maximal inhibition (IC50). For `Cc1ccc(C(F)(F)F)cc1Nc1nc(C(=O)NS(=O)(=O)N2CCCNCC2)co1` [Example 2-029], half-maximal inhibition under setting [1] (IC50) was put at 0.18 µM.

In turn, `O=C(NS(=O)(=O)N1C2CCC1CC2)c1coc(Nc2c3c(c(Cl)c4c2CCC4)CCC3)n1` [Example 50] registered a 50% inhibitory concentration (IC50) under setting [2] of 0.72 µM. This counts as sub-micromolar. For the molecule `CCOC1COCCN(S(=O)(=O)NC(=O)c2coc(Nc3cc(C(C)C)ccc3C)n2)C1` (racemic) [Example 2-319], half-maximal inhibition (IC50) required 0.11 µM. Under setting [1], `CCS(=O)(=O)N1CCCN(S(=O)(=O)NC(=O)c2coc(Nc3cc(C(F)(F)F)ccc3C)n2)CC1` [Example 2-064] registered an IC50 of 0.026 µM. `COC1CN(S(=O)(=O)CCCF)CCN(S(=O)(=O)NC(=O)c2coc(Nc3cc(C(F)(F)F)ccc3C)n2)C1` (racemic) [Example 2-205] displayed a half-maximal inhibitory concentration (IC50) of 0.036 µM.

In turn, `Cc1cc(C#N)c(C(F)(F)F)cc1Nc1nc(C(=O)NS(=O)(=O)N2CCCOCC2)co1` [Example 2-142] had an IC50 under setting [1] of 6.3 µM. `COCC1CN(S(=O)(=O)NC(=O)c2coc(Nc3cc(C(F)(F)F)ccc3C)n2)CCCO1` (racemic) [Example 2-091] yielded an IC50 of 0.038 µM. `Cc1ccc(C2CC2)cc1Nc1nc(C(=O)NS(=O)(=O)N2CCCOCC2)co1` [Example 2-042] showed an IC50 under setting [1] of 0.056 µM.

For the molecule `Cc1ccc(C)c(Nc2nc(C(=O)NS(=O)(=O)N3CCC[C@H]3CN3CCCC3)co2)c1` [Example 2-321], the inhibition (in general, the change of the read-out against control, counted positive when it falls) at 3 µM is -11%.

Molecule `Cc1ccc(C)c(Nc2nc(C(=O)NS(=O)(=O)N3CCCOCC3)co2)c1` [Example 2-073] yielded an IC50 under setting [1] of 0.28 µM. Under setting [2], “2-((8-chloro-1,2,3,5,6,7-hexahydro-s-indacen-4-yl)amino)-N—(N,N-dimethylsulfamoyl)oxazole-4-carboxamide [Example 23]” displayed an IC50 below 0.03 µM. With `CC(C)c1cnc(C(F)(F)F)nc1Nc1nc(C(=O)NS(=O)(=O)N2CCCOCC2)co1` [Example 2-144], the inhibition at 3 µM was 23%.

Consider `CCCS(=O)(=O)N1CCCN(S(=O)(=O)NC(=O)c2coc(Nc3cc(C)ccc3CC)n2)CC1` [Example 2-257], for which, under setting [1], the IC50 stood at 0.022 µM. That is a double-digit nanomolar value. On the same count and under the same terms, the figure for `CCCCS(=O)(=O)N1CCCN(S(=O)(=O)NC(=O)c2coc(Nc3cc(C(F)F)ccc3C(C)C)n2)CC1` [Example 2-225] is 0.036 µM.

As to `CC(C)c1ccc(C(F)(F)F)nc1Nc1nc(C(=O)NS(=O)(=O)N2CCCOCC2)co1` [Example 2-125], under setting [1], it took 0.25 µM to reach half-maximal inhibition (IC50). Take `Cc1ccc2c(c1Nc1nc(C(=O)NS(=O)(=O)N3CCOCC3)co1)CCC2` [Example 32]: the half-inhibitory concentration (IC50) under setting [2] was determined as 0.15 µM. Regarding `CCC1COCCN1S(=O)(=O)NC(=O)c1cnc(Nc2c3c(cc4c2CCC4)CCC3)o1` (racemic) [Example 11], the 50% inhibitory concentration (IC50) was found to be 0.072 µM. That is a double-digit nanomolar value. Same read-out and setting: then `CCS(=O)(=O)N1CCCN(S(=O)(=O)NC(=O)c2coc(Nc3cc(C(F)(F)F)ccc3C)n2)CC1C` (racemic) [Example 2-242], with 0.045 µM.

Under setting [1], `Cc1ccc(C(F)(F)F)cc1Nc1nc(C(=O)NS(=O)(=O)N2CCCN(S(=O)(=O)CC(C)C)CC2)co1` [Example 2-128] displayed a 50% inhibitory concentration (IC50) of 0.02 µM. On the same count and under the same terms, then `Cc1ncc(C(F)(F)F)cc1Nc1nc(C(=O)NS(=O)(=O)N2CCCOCC2)co1` [Example 2-104], with 1.8 µM. Still for that read-out and setting: the figure for `Cc1ccc(C(F)(F)F)cc1Nc1nc(C(=O)NS(=O)(=O)N(C)C)cs1` [Example 2-062] is 0.048 µM. The molecule `COC(C)c1ccc(C)c(Nc2nc(C(=O)NS(=O)(=O)N(C)C)co2)c1` (racemic) [Example 2-061] had a 50% inhibitory concentration (IC50) of 0.57 µM. `CC(C)n1cc(Nc2nc(C(=O)NS(=O)(=O)N3CCCOCC3)co2)c(C(C)(C)C)n1` [Example 2-194] had an IC50 under setting [1] of 1.5 µM. In the case of `COC1CCCN(S(=O)(=O)NC(=O)c2coc(Nc3cc(C(F)(F)F)ccc3C)n2)CC1` (racemic) [Example 2-148], the half-maximal inhibitory concentration (IC50) worked out at 0.04 µM. Under setting [2], `O=C(NS(=O)(=O)N1CCOCC1)c1cnc(Nc2c3c(cc4c2CCC4)CCC3)o1` [Example 2] registered an IC50 below 0.03 µM. Still for that read-out and setting: the figure for `CN(C)S(=O)(=O)NC(=O)c1cnc(Nc2cccc3c2CCC3)o1` [Example 19] is 5.7 µM.

As to `CCCCS(=O)(=O)N1CCCN(S(=O)(=O)NC(=O)c2coc(Nc3nn(C(C)C)cc3C)n2)CC1` [Example 2-181], under setting [1], the IC50 came out at 0.031 µM. Regarding `Cc1ccc(C(F)(F)F)cc1Nc1nc(C(=O)NS(=O)(=O)N2CCC(O)C2)co1` (racemic) [Example 29], the IC50 was found to be 0.12 µM. With `Cc1ccc(C2(C)CC2)cc1Nc1nc(C(=O)NS(=O)(=O)N(C)C)co1` [Example 2-044], under setting [1], the IC50 amounted to 0.06 µM. `Cc1ccc(C(C)C)cc1Nc1nc(C(=O)NS(=O)(=O)N2CCCOCC2)co1` [Example 2-047]: under setting [1], the IC50 was below 0.03 µM. The same measure, in the same setting: then `CCCCC(=O)N1CCCN(S(=O)(=O)NC(=O)c2coc(Nc3cc(C(F)(F)F)ccc3C)n2)CC1` [Example 2-182], with 0.01 µM. In turn, `Cc1cc(C)n(C2CCCN(S(=O)(=O)NC(=O)c3coc(Nc4cc(C(F)(F)F)ccc4C)n3)CC2)n1` (racemic) [Example 2-297] registered an IC50 of 0.087 µM. `Cc1ccc(C(F)F)cc1Nc1nc(C(=O)NS(=O)(=O)N(C)C)co1` [Example 2-010] came in with an IC50 under setting [1] of 0.12 µM. `CCOCC1CCN(S(=O)(=O)NC(=O)c2coc(Nc3cc(C)ccc3C)n2)CCO1` (stereo not shown) [Example 2-305] yielded a 50% inhibitory concentration (IC50) under setting [1] of 0.049 µM. Regarding `O=C(NS(=O)(=O)N1CCCOCC1)c1coc(Nc2cc(C(F)(F)F)ccc2Cl)n1` [Example 2-136], the inhibition at 3 µM was -1.6%.

These data come from US20230399319A1, “Acylsulfamide Compound and Pharmaceutical Use Therefor” (Japan Tobacco Inc., priority 2019, published 2023).
